Experimental data as given in the NIST ThermoML archive (doi:10.1021/je500395f).

Conditions: Fluid (supercritical or subcritical phases), Coaxial cylinder method

CCC [propane]
thermal conductivity [W/m/K]
Conditions	370.45 K	371.05 K
2710 kPa	–	0.03205
3100 kPa	–	0.03344
3375 kPa	–	0.03463
3452 kPa	0.03558	–
3487 kPa	0.0359	–
3655 kPa	–	0.03745
3770 kPa	0.03805	–
3856 kPa	0.03938	–
3900 kPa	–	0.04056
3986 kPa	0.04204	–
4042 kPa	0.04385	–
4095 kPa	–	0.04417
4105 kPa	0.04623	–
4155 kPa	–	0.04633
4170 kPa	0.05102	–
4190 kPa	0.05329	–
4200 kPa	0.055	–
4205 kPa	0.05577	–
4215 kPa	–	0.04915
4217 kPa	0.05902	–
4224 kPa	0.06133	–
4227 kPa	0.06249	–
4232 kPa	0.06383	–
4235 kPa	–	0.0519
4241 kPa	0.06723	–
4244 kPa	0.06856	–
4245 kPa	0.06879	–
4250 kPa	0.07121	–
4252 kPa	–	0.05394
4255 kPa	0.0743	–
4260 kPa	0.0774	–
4265 kPa	0.08106	0.05669
4270 kPa	0.08804	–
4275 kPa	0.09622	–
4276 kPa	–	0.05854
4280 kPa	0.1118	–
4284 kPa	–	0.06121
4285 kPa	0.1252	–
4289 kPa	–	0.06357
4290 kPa	0.1423	–
4295 kPa	0.156	0.06602
4300 kPa	0.1452	–
4301 kPa	–	0.06867
4305 kPa	0.1291	–
4308 kPa	–	0.07332
4310 kPa	0.1181	–
4313 kPa	–	0.07659
4315 kPa	0.1061	–
4318 kPa	–	0.08141
4319 kPa	–	0.08406
4320 kPa	0.101	–
4322 kPa	–	0.08836
4324 kPa	–	0.09107
4325 kPa	0.09628	0.09395
4326 kPa	–	0.09568
4328 kPa	–	0.09934
4329 kPa	–	0.1013
4330 kPa	0.09201	–
4331 kPa	–	0.1054
4332 kPa	–	0.1075
4334 kPa	–	0.1104
4335 kPa	0.08809	–
4336 kPa	–	0.114
4337 kPa	–	0.1159
4338 kPa	–	0.1172
4339 kPa	–	0.1178
4340 kPa	0.08122	0.1185
4342 kPa	–	0.1192
4343 kPa	–	0.1192
4344 kPa	–	0.1192
4345 kPa	0.07814	0.1185
4346 kPa	–	0.1178
4347 kPa	–	0.1159
4349 kPa	–	0.1121
4350 kPa	0.07669	–
4351 kPa	–	0.1081
4354 kPa	–	0.1028
4355 kPa	0.07528	–
4356 kPa	–	0.09934
4358 kPa	–	0.09657
4360 kPa	0.07393	0.09395
4361 kPa	–	0.09311
4365 kPa	–	0.08989
4367 kPa	–	0.08836
4370 kPa	–	0.08616
4375 kPa	–	0.08406
4377 kPa	0.07217	–
4383 kPa	–	0.08141
4387 kPa	–	0.08015
4392 kPa	–	0.07865
4396 kPa	–	0.07776
4400 kPa	0.07099	–
4402 kPa	–	0.07633
4408 kPa	–	0.07494
4414 kPa	–	0.07363
4420 kPa	0.07014	0.07231
4440 kPa	–	0.07105
4485 kPa	–	0.06921
4560 kPa	0.06814	–
4580 kPa	0.06769	–
4800 kPa	0.06654	–
5000 kPa	0.06717	–
5500 kPa	0.06784	–
5550 kPa	0.06791	–
5760 kPa	0.06812	–
6000 kPa	0.06874	–
6500 kPa	0.06997	–
7000 kPa	0.07091	–
7500 kPa	0.07178	–
8000 kPa	0.07277	–
8500 kPa	0.07381	–
9000 kPa	0.07421	–
9500 kPa	0.07545	–
10000 kPa	0.07572	–
10500 kPa	0.07624	–
11000 kPa	0.07677	–
11200 kPa	0.07735	–
11300 kPa	0.07645	–
15100 kPa	0.08094	–
